Data: the NIST ThermoML archive (doi:10.1016/j.jct.2016.07.005)

Assay: refractive index (Na D-line) (dimensionless); xn = mol fraction of the nth substance listed
Conditions: 100 kPa, Liquid, Standard Abbe refractometry

CN1CCC[C@H]1c1cccnc1 [(-)-3-(N-methylpyrrolidino)pyridine] + OCCCO
refractive index
Conditions | x1 = 0.1 | x1 = 0.1999 | x1 = 0.3 | x1 = 0.3994 | x1 = 0.5 | x1 = 0.6004 | x1 = 0.7 | x1 = 0.8 | x1 = 0.9 | x1 = 1
293.15 K | 1.45763 | 1.47282 | 1.48522 | 1.49551 | 1.50314 | 1.50913 | 1.51461 | 1.51947 | 1.5228 | 1.52665
298.15 K | 1.4561 | 1.47118 | 1.4835 | 1.49364 | 1.50131 | 1.50702 | 1.51264 | 1.51729 | 1.52064 | 1.52439
303.15 K | 1.45463 | 1.46959 | 1.48179 | 1.49178 | 1.49939 | 1.5052 | 1.51056 | 1.51508 | 1.51845 | 1.52214
308.15 K | 1.45312 | 1.46793 | 1.48 | 1.48991 | 1.49739 | 1.50305 | 1.50843 | 1.51294 | 1.51623 | 1.51988
313.15 K | 1.45171 | 1.46637 | 1.47831 | 1.48799 | 1.49571 | 1.50113 | 1.50703 | 1.51089 | 1.51476 | 1.5179
318.15 K | 1.45006 | 1.46458 | 1.4764 | 1.48604 | 1.49341 | 1.49907 | 1.50429 | 1.50872 | 1.51216 | 1.51592
323.15 K | 1.44849 | 1.46287 | 1.4746 | 1.48415 | 1.49147 | 1.49703 | 1.50221 | 1.5066 | 1.50996 | 1.51373

CN1CCC[C@H]1c1cccnc1 [(-)-3-(N-methylpyrrolidino)pyridine] + CCCCO
refractive index
Conditions | x1 = 0.1 | x1 = 0.196 | x1 = 0.3 | x1 = 0.3931 | x1 = 0.5 | x1 = 0.593 | x1 = 0.7 | x1 = 0.7931 | x1 = 0.9 | x1 = 1
293.15 K | 1.42126 | 1.44053 | 1.45673 | 1.46978 | 1.48302 | 1.49254 | 1.50289 | 1.51169 | 1.51909 | 1.52665
298.15 K | 1.41913 | 1.43825 | 1.45448 | 1.46759 | 1.48076 | 1.49031 | 1.50065 | 1.50945 | 1.51685 | 1.52439
303.15 K | 1.41697 | 1.43598 | 1.45225 | 1.46538 | 1.47856 | 1.48808 | 1.49847 | 1.50721 | 1.51463 | 1.52214
308.15 K | 1.41481 | 1.43367 | 1.45 | 1.46318 | 1.4763 | 1.48583 | 1.49623 | 1.50495 | 1.51238 | 1.51988
313.15 K | 1.4127 | 1.43148 | 1.44779 | 1.46096 | 1.47404 | 1.48355 | 1.49404 | 1.5028 | 1.51035 | 1.5179
318.15 K | 1.41058 | 1.42931 | 1.44562 | 1.45876 | 1.47184 | 1.48131 | 1.49183 | 1.50058 | 1.50823 | 1.51592
323.15 K | 1.40842 | 1.42705 | 1.44337 | 1.45655 | 1.46958 | 1.47906 | 1.48961 | 1.49837 | 1.50604 | 1.51373
